Earlier results on 13 compounds are cited in patent publication US9918986B2, “Methods and compounds for preventing osteoarthritis” (UNIVERSITY COLLEGE CARDIFF CONSULTANTS LIMITED, priority 2013, dated 2018).

Series [1] deals with AMPA receptor. As to conditions: cited from earlier work.
Series [2] has as its system Kainate receptor. The conditions noted are these: cited from earlier work.
Series [3] concerns the target T1, IL-6 receptor (Homo sapiens, UniProt P08887).
T1 construct: host or cells: RA patients (endogenous receptor)
T1 sequence (P08887 20-468): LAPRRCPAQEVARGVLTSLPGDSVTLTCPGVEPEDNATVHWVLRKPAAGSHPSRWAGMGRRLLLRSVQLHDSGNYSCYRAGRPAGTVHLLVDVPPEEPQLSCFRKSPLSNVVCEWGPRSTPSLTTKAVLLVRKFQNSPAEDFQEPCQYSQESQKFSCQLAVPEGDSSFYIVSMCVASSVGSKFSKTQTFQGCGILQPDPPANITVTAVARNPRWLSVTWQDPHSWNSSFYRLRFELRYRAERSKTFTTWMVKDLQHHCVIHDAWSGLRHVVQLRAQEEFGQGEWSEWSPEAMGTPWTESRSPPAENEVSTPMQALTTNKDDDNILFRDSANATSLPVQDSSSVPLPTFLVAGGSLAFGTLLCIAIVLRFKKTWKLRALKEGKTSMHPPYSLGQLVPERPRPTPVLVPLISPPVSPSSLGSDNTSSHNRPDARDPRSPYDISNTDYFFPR
As to conditions: RA patients; cited from earlier work.

Series [4] has as its system rodent arthritis. The conditions noted are these: oral administration, cited from earlier work.
Series [5] has as its system human RA FLS. As to conditions: cited from earlier work.

Take `NCCCNCCCCNCCCNC(=O)Cc1cccc2ccccc12` [1-NAS, 1-naphthyl acetyl sperm me]: the AMPA receptor antagonist entry in series [1] is recorded as “Yes”. Moreover, the Kainate receptor antagonist result in series [2] is given as “No”.
“tocilizumab: anti-IL-6 receptor inhibitor”: the “synovitis and radiographic changes” value in series [3] is listed as “significantly improves”.
Regarding `N#Cc1cc2c(cc1[N+](=O)[O-])=NC(=O)C(=O)N=2` [CNQX, 6-cyano-7-nitroquinoxaline-2,3-dione], in series [1], the AMPA receptor antagonist result is listed as “Yes”. The Kainate receptor antagonist result in series [2] was “Yes”.
`CCNC(=O)CC[C@H](N)C(=O)O` [L-Theanine, gamma-glutamylethylamide or 5-N-ethyl-glutamine]: the AMPA receptor antagonist result in series [1] is “Yes”. Further, in series [2], the Kainate receptor antagonist result was “Yes”.
Regarding `O=C1Nc2c(cc([N+](=O)[O-])c3c2CCCC3)C1=NO` [NS-102], the AMPA receptor antagonist entry in series [1] is reported as “Weak”. Moreover, the Kainate receptor antagonist entry in series [2] is “Yes”.
Take `CC1=NN=C(c2ccc(N)cc2)c2cc3c(cc2C1)OCO3` [GYKI52466, 4-(8-Methyl-9H-1,3-dioxolo[4,5-h][2-,3]benzodiazepin-5-yl)-benzenamine]: the AMPA receptor antagonist result in series [1] is “Yes”. For the same compound, in series [2], the Kainate receptor antagonist entry is “Yes”. Moreover, in series [4], the body weight loss result is “attenuated”, the hyperalgesia entry is “attenuated” and the “primary oedema on the right paw” value is reported as “no effect”. The “secondary, generalized inflammation-induced swelling of the left paw” value in series [4] (second phase of chronic disease) is recorded as “no effect”.
On to `Cc1cn(C[C@H](N)C(=O)O)c(=O)n(Cc2cc(-c3ccccc3)sc2C(=O)O)c1=O` [ACET], for which the AMPA receptor antagonist result in series [1] is given as “No”. Besides, in series [2], the Kainate receptor antagonist result is “Yes”.
As to `O=C(O)[C@@H]1C[C@H]2C[C@@H](CCc3nn[nH]n3)CC[C@H]2CN1` [Tezampanel], the AMPA receptor antagonist result in series [1] is on record as “Yes”. Further, in series [2], the Kainate receptor antagonist entry was “Yes”.
With `O=C(O)c1cc(=O)c2ccccc2[nH]1` [Kynurenic acid], the AMPA receptor antagonist result in series [1] is “Yes”. In addition, the Kainate receptor antagonist entry in series [2] was “Yes”.
`COc1cc2c(cc1OC)C(c1ccc(N)cc1)=NNC(=O)C2` [CFM-2, 1-(4′-Aminophenyl)-3,5-dihydro-7,8-dimethoxy-4H-2,3-benzodiazepin-4-one]: the “MMP-2 expression by FLS” value in series [5] is listed as “did not affect”. For the same compound, the AMPA receptor antagonist result in series [1] is on record as “Yes”. Also, in series [2], the Kainate receptor antagonist entry is reported as “No”.
Regarding `NC(CCCP(=O)(O)O)C(=O)O` [D-AP5], the “MMP-2 expression by FLS” value in series [5] is listed as “did not affect”.
In the case of `O=C1N=c2cc([N+](=O)[O-])c([N+](=O)[O-])cc2=NC1=O` [DNQX, 6,7-dinitroquinoxaline-2,3-dione], the AMPA receptor antagonist result in series [1] is “Yes”. Moreover, the Kainate receptor antagonist result in series [2] is reported as “Yes”.
Take `C[C@]12N[C@H](Cc3ccccc31)c1ccccc12` [MK801]: the proMMP-2 release entry in series [5] (RA FLS) is “significantly increased”.
